Experimental data published in PMC10778626, “Efficacy of Novel Quaternary Ammonium and Phosphonium Salts Differing in Cation Type and Alkyl Chain Length against Antibiotic-Resistant Staphylococcus aureus” (International Journal of Molecular Sciences, 2023).

How the values were obtained:
S. aureus SA1199B = assay: MIC/MBC by broth microdilution, S. aureus SA1199B; assay type: cell-based; conditions: Staphylococcus aureus
Procedure: (§1) S. aureus CECT 976, obtained from the Spanish Type Culture Collection, was used as the standard susceptibility testing control strain. This strain has been previously employed in diverse studies to validate the antimicrobial effects of novel molecules. Additional antibiotic-resistant strains, S. aureus XU212, SA1199B, and RN4220, generously provided by S. Gibbons (University College London, London, UK) were tested. […] The SA1199B strain is characterized by its resistance to fluoroquinolones due to the overexpression of the NorA efflux pump and its ciprofloxacin resistance.
(§2) The minimum inhibitory concentration (MIC) and minimum bactericidal concentration (MBC) values of all QHSs were determined by the broth microdilution method, according to the approved M7-A7 (aerobes) standards of the Clinical and Laboratory Standards Institute (CLSI) guidelines. Overnight cell cultures of S. aureus, in the exponential phase of growth, were adjusted to an optical density (OD) of 0.132 ± 0.02 (λ = 600 nm). Then, a volume of 180 µL of the cell suspension was added to sterile, flat, clear-bottomed polystyrene (PS) 96-well microtiter plates (VWR—Radnor, PA, USA), already containing 20 µL of each QHS under study at concentrations ranging from 0.0625 to 64 µg/mL. In the end, the volume of each compound never exceeded 10% (v/v) of the well volume. Microtiter plates were then incubated for 24 h at 37 °C under agitation (150 rpm; INCU-Line IL 150R incubator). Absorbance measurements were performed at the beginning (t = 0 h) and end (t = 24 h) of the incubation period using a microtiter plate absorbance reader (BMG LABTECH FLUOstar Omega). Bacterial suspensions with DMSO and without QHSs were used as negative controls. […] All tests were performed with six replicates and a minimum of three independent repeats.
(§3) Plates were incubated at 37 °C for 24 h, and growth was visually inspected. The MBC was determined as the lowest concentration of compound in which the total inhibition of growth on solid medium was observed (no colony forming units (CFUs) were detected). All tests were performed in triplicate, and with a minimum of three independent repeats.

[1] = Chromatographic hydrophobicity index (CHI) by UHPLC; assay type: physicochemical; conditions: for CHI: LC/UV at pH 2.6, calculated from retention time with the calibration line; for chromatographic logP: back-calculated from CHI at pH 2.6: CHI LogP = 0.047 × CHI + 0.36 × HBC − 1.10
Procedure: The chromatographic hydrophobicity index (CHI) values were determined using the retention times (tR) of the samples under study and of a mixture of standard compounds on a UHPLC NEXERA SERIES LC-40 with a Luna C18 (2) column of 150 × 4.6 mm, 5 μm (Phenomenex, Torrance, CA, USA). Stock solutions of the test compounds (10 mM) were prepared in dimethyl sulfoxide (DMSO, 99.9%; Carlo Erba) and diluted in acetonitrile/water (1:1) to obtain a final concentration of 500 μM. The mobile phase A was 1.0% (v/v) aqueous acetic acid solution (pH = 2.6), and the mobile phase B was acetonitrile. The following gradient programme was applied: 1–7 min 0–100% B, 7–17 min 100% B, 17–19 min 100–0% B, 1 mL/min flow; rt, injection volume 40 μL.
A calibration line was obtained using a mixture of the following compounds: benzimidazole, theophylline, paracetamol, caffeine, colchicine, carbamazepine, indole, propiophenone, butyrophenone, valerophenone, and heptanophenone (Table S1 and Figure S50, Supplementary Materials). The experimental CHI values of the compounds tested at pH 2.6 were then converted to the logarithm of octanol/water partition coefficient (CHI LogP) values using Equation (1). CHI LogP = 0.047 × CHI + 0.36 × HBC − 1.10 (1) where HBC is the hydrogen bond donor count.

S. aureus RN4220 = assay: MIC/MBC by broth microdilution, S. aureus RN4220; assay type: cell-based; conditions: Staphylococcus aureus
Procedure: as §1, §2, §3

S. aureus XU212 = assay: MIC/MBC by broth microdilution, S. aureus XU212; assay type: cell-based; conditions: Staphylococcus aureus
Procedure: as §1, §2, §3

S. aureus CECT 976 = assay: MIC/MBC by broth microdilution, S. aureus CECT 976; assay type: cell-based; conditions: Staphylococcus aureus, CECT976, S. aureus CECT 976, broth microdilution; for MIC: 24 h, 37 °C, read-out: MIC; for MBC: plated on PCA, read-out: MBC
Procedure: as §2
Plates were incubated at 37 °C for 24 h, and growth was visually inspected. […] All tests were performed in triplicate, and with a minimum of three independent repeats.

HepG2 cells = assay: Cytotoxicity by neutral red (NR) uptake; assay type: cell-based, human; conditions: for NR uptake (lysosomal activity), % of control: HepG2, 24 h; for safety profile (MIC correlated with in vitro human cellular data): concentrations equal to or below 2 µg/mL
Procedure: The evaluation of the cytotoxicity effects of QHSs was performed using hepatocellular carcinoma (HepG2) cells. […] The cells used for all experiments were taken between the 9th and 13th passages, to avoid phenotypic changes.
The cytotoxicity profile of the compounds under study was evaluated in HepG2 cells (2.5 × 10^5 cells/mL) seeded in 96-well plates. […] Control experiments were performed for viability endpoints by adding the vehicle (medium with 0.1% DMSO) instead of the compound solution.
In the NR uptake assay, following a 24 h incubation period with the test compounds, the cell culture medium was aspirated, and fresh medium containing 150 µL of the dye (at a concentration of […]) was added to the cells. […] After incubation, the cell culture medium was discarded, and a mixture of absolute ethanol and distilled water (1:1) containing 5% acetic acid was added to extract the dye accumulated within the lysosomes of viable cells. The absorbance at 540 nm was measured using a microplate reader (Synergy HTX Multi-Mode Reader—BioTek, Winooski, VT, USA).
For all assays, results are expressed as a percentage of the control (nontreated cells), taken as 100%.

Structure (SMILES) | MBC (S. aureus SA1199B) [µg/mL] | MIC (S. aureus SA1199B) [µg/mL] | CHI [1] | chromatographic logP [1] | MBC (S. aureus RN4220) [µg/mL] | MIC (S. aureus RN4220) [µg/mL] | MBC (S. aureus XU212) [µg/mL] | MIC (S. aureus XU212) [µg/mL] | MIC (S. aureus CECT 976) [µg/mL] | MBC (S. aureus CECT 976) [µg/mL] | NR uptake (lysosomal activity), % of control (HepG2 cells; 16 µg/mL) | NR uptake (lysosomal activity), % of control (HepG2 cells; 32 µg/mL) | NR uptake (lysosomal activity), % of control (HepG2 cells; 2 µg/mL) | safety profile (MIC correlated with in vitro human cellular data) (HepG2 cells) | NR uptake (lysosomal activity), % of control (HepG2 cells; 1 µg/mL)
CCCCCCCCCCCCCC[n+]1ccccc1.[Br-] [Compound 6e, 1-Tetradecylpyridin-1-ium bromide] | 16 | 16 | 79.90 | 2.65 | 8 | 4 | 64 | 32 | 4 | 8 | 10.46 ± 3.129% (****) | 12.93 ± 3.760% (****) | – | – | –
CCCCCCCCCCCCCC[n+]1cccc2ccccc21.[Br-] [Compound 5e, 1-Tetradecylquinolin-1-ium bromide] | 8 | 4 | 88.00 | 3.04 | 8 | 2 | 8 | 8 | 2 | 8 | 12.06 ± 2.988% (****) | 14.38 ± 4.045% (****) | 88.20 ± 3.101% (****) | favourable safety profile | –
CCCCCCCCCCCCCC[n+]1ccc(C)cc1.[Br-] [Compound 4e, 4-Methyl-1-tetradecylpyridin-1-ium bromide] | 32 | 8 | 82.90 | 2.8 | 8 | 4 | 32 | 32 | 2 | 8 | 14.45 ± 2.437% (****) | 21.52 ± 19.06% (****) | – | favourable safety profile | –
CCCCCCCCCCCCCC[P+](c1ccccc1)(c1ccccc1)c1ccccc1 [Compound 1e, Triphenyl(tetradecyl)phosphonium bromide] | 2 | 1 | 105.0 | 3.84 | 2 | 1 | 2 | 2 | 1 | 16 | 12.29 ± 3.775% (****) | 13.78 ± 2.666% (****) | 72.84 ± 7.906% (****) | – | 53.86 ± 4.854% (****)
CCCCCCCCCCCCCC[n+]1ccn(C)c1.[Br-] [Compound 2e, 1-Methyl-3-tetradecyl-1H-imidazol-3-ium bromide] | 32 | 8 | 81.36 | 2.72 | 8 | 4 | 64 | 32 | 1 | 8 | 12.85 ± 2.005% (****) | 13.64 ± 2.776% (****) | 86.71 ± 4.103% (****) | favourable safety profile | –
CCCCCCCCCCCCCC[n+]1ccc2ccccc2c1.[Br-] [Compound 3e, 2-Tetradecylisoquinolin-2-ium bromide] | 8 | 2 | 87.98 | 3.04 | 4 | 2 | 8 | 4 | 2 | 8 | 12.68 ± 2.385% (****) | 12.77 ± 1.368% (****) | 79.86 ± 9.893% (****) | – | –
